Laboratory results taken from patent US8168656B2, “Indoleacetic acid and indenacetic acid derivatives as therapeutic agents with reduced gastrointestinal toxicity” (Vanderbilt University, priority 2009, dated 2012).
Where two headings read alike, the source gives them in different places.

Tests used:
HCT-116 cells = experiment: Cell viability assay (WST-1); assay type: cell-based; details: Homo sapiens
Protocol: (§1) RKO and HCT-116 cells (human colorectal cancer cell lines) were cultured in microtiter plates (tissue culture grade, 96-well flat) in a final volume of 100 μl culture medium containing 5-8×10^4 cells and the final concentrations of chemicals (1-500 μM). Cells were incubated in a humidified atmosphere for 8-24 hours. To the cultures, 10 μl of cell proliferation reagent, WST-1 (Roche Applied Science, Indianapolis, Ind., United States of America) was added, and reincubated for 1-2 hours. The absorbance of the samples was determined using a microtiter plate reader at a wavelength of 405-450 nm against background control. Reference wavelength was 620 nm. The tetrazolium salt, WST-1 (4-[3-(4-Iodophenyl)-2-(4-nitrophenyl)-2H-5-tetrazolio]-1,3-benzene disulfonate) was metabolized to formazan by the “succinate-tetrazolium reductase” system, which exists in mitochondria and is active only in viable cells. Thus, the formation of formazan (dark yellow color) is proportional to the viable cell numbers.
(§2) The generated data points were used to calculate ED50 values by creating a sigmoidal dose-response curve using non-linear regression. ED50 valued were calculated using the statistical analysis program PRISM® (GraphPad Software, Inc., San Diego, Calif., United States of America).

RKO cells = experiment: Cell viability assay (WST-1); assay type: cell-based; details: Homo sapiens
Protocol: as §1, §2

[1] = concentration that reduces cell viability by 50%, read-out: ED50 HCT-116
[2] = concentration that reduces cell viability by 50%, read-out: ED50 RKO
[3] = second part of Table 9, read-out: ED50 HCT-116
[4] = second part of Table 9, read-out: ED50 RKO

Structure (SMILES): CSc1ccc(/C=C2\C=C(CC(=O)NCc3ccc(N)cc3)c3cc(F)ccc32)cc1 [Compound 12]
- EC50 (HCT-116 cells; [1]): > 3000 nM
- EC50 (RKO cells; [2]): 2300 ± 30 nM

Structure (SMILES): CS(=O)(=O)c1ccc(/C=C2\C=C(CC(=O)NCc3ccccc3)c3cc(F)ccc32)cc1 [Compound 33]
- EC50 (HCT-116 cells; [3]): 1200 ± 300 nM
- EC50 (RKO cells; [4]): 800 ± 100 nM

Structure (SMILES): [N-]=[N+]=NCc1ccc(/C=C2\C=C(CC(=O)NCc3ccc(C4(c5ccccc5)CO4)cc3)c3cc(F)ccc32)cc1 (centres unmarked) [Compound 29]
- EC50 (HCT-116 cells; [1]): > 3000 nM
- EC50 (RKO cells; [2]): > 3000 nM

Structure (SMILES): CSc1ccc(/C=C2\C=C(CC(=O)N[C@H](C)c3ccccc3)c3cc(F)ccc32)cc1 [Compound 8]
- EC50 (HCT-116 cells; [1]): > 3000 nM
- EC50 (RKO cells; [2]): > 3000 nM

Structure (SMILES): CSc1ccc(/C=C2\C=C(CC(=O)NCc3ccccc3C)c3cc(F)ccc32)cc1 [Compound 19]
- EC50 (HCT-116 cells; [1]): > 3000 nM
- EC50 (RKO cells; [2]): > 3000 nM

Structure (SMILES): CSc1ccc(/C=C2\C=C(CC(=O)NCCCc3ccccc3)c3cc(F)ccc32)cc1 [Compound 5]
- EC50 (HCT-116 cells; [1]): > 3000 nM
- EC50 (RKO cells; [2]): > 3000 nM

Structure (SMILES): CSc1ccc(/C=C2\C=C(CC(=O)NCc3ccc(O)cc3)c3cc(F)ccc32)cc1 [Compound 15]
- EC50 (HCT-116 cells; [1]): 1200 ± 200 nM
- EC50 (RKO cells; [2]): 100 ± 40 nM

Structure (SMILES): CSc1ccc(/C=C2\C=C(CC(=O)NCc3ccccc3[N+](=O)[O-])c3cc(F)ccc32)cc1 [Compound 28]
- EC50 (HCT-116 cells; [1]): > 3000 nM
- EC50 (RKO cells; [2]): > 3000 nM

Structure (SMILES): CSc1ccc(/C=C2\C=C(CC(=O)NCc3ccccc3)c3cc(F)ccc32)cc1 [Compound 3]
- EC50 (HCT-116 cells; [1]): 3900 ± 900 nM
- EC50 (RKO cells; [2]): 1100 ± 700 nM

Structure (SMILES): CSc1ccc(/C=C2\C=C(CC(=O)NCc3ccc(C)cc3)c3cc(F)ccc32)cc1 [Compound 17]
- EC50 (HCT-116 cells; [1]): 1200 ± 100 nM
- EC50 (RKO cells; [2]): 730 ± 60 nM

Structure (SMILES): COc1ccc(/C=C2\C=C(CC(=O)NCc3ccccc3)c3cc(F)ccc32)cc1 [Compound 35]
- EC50 (HCT-116 cells; [3]): 1000 ± 800 nM
- EC50 (RKO cells; [4]): 700 ± 100 nM

Structure (SMILES): C[S+]([O-])c1ccc(/C=C2\C=C(CC(=O)NCc3ccccc3)c3cc(F)ccc32)cc1 (centres unmarked) [Compound 32]
- EC50 (HCT-116 cells; [3]): 6000 ± 1000 nM
- EC50 (RKO cells; [4]): 2400 ± 200 nM

Structure (SMILES): CSc1ccc(/C=C2\C=C(CC(=O)NCc3ccccc3N)c3cc(F)ccc32)cc1 [Compound 14]
- EC50 (HCT-116 cells; [1]): > 3000 nM
- EC50 (RKO cells; [2]): > 3000 nM

Structure (SMILES): CSc1ccc(/C=C2\C=C(CC(=O)NCc3cccc([N+](=O)[O-])c3)c3cc(F)ccc32)cc1 [Compound 27]
- EC50 (HCT-116 cells; [1]): > 3000 nM
- EC50 (RKO cells; [2]): > 3000 nM

Structure (SMILES): CSc1ccc(/C=C2\C=C(CC(=O)NCc3ccc([N+](=O)[O-])cc3)c3cc(F)ccc32)cc1 [Compound 26]
- EC50 (HCT-116 cells; [1]): 2100 ± 700 nM
- EC50 (RKO cells; [2]): 540 ± 70 nM

Structure (SMILES): CSc1ccc(/C=C2\C=C(CC(=O)NCCc3ccccc3)c3cc(F)ccc32)cc1 [Compound 4]
- EC50 (HCT-116 cells; [1]): > 3000 nM
- EC50 (RKO cells; [2]): > 3000 nM

Structure (SMILES): CSc1ccc(/C=C2\C=C(CC(=O)NCc3cccc(Br)c3)c3cc(F)ccc32)cc1 [Compound 23]
- EC50 (HCT-116 cells; [1]): > 3000 nM
- EC50 (RKO cells; [2]): > 3000 nM

Structure (SMILES): CSc1ccc(/C=C2\C=C(CC(=O)NCc3ccncc3)c3cc(F)ccc32)cc1 [Compound 9]
- EC50 (HCT-116 cells; [1]): > 3000 nM
- EC50 (RKO cells; [2]): > 3000 nM

Structure (SMILES): O=C(O)CC1=C/C(=C\c2ccc(Br)cc2)c2ccc(F)cc21 [Compound 37]
- EC50 (RKO cells; [4]): > 10000 nM

Structure (SMILES): [N-]=[N+]=NCc1ccc(/C=C2\C=C(CC(=O)NCc3ccc(NC(=O)CBr)cc3)c3cc(F)ccc32)cc1 [Compound 31]
- EC50 (HCT-116 cells; [1]): > 3000 nM
- EC50 (RKO cells; [2]): > 3000 nM

Structure (SMILES): CSc1ccc(/C=C2\C=C(CC(=O)N(C)Cc3ccccc3)c3cc(F)ccc32)cc1 [Compound 6]
- EC50 (HCT-116 cells; [1]): > 3000 nM
- EC50 (RKO cells; [2]): > 3000 nM

Structure (SMILES): O=C(CC1=C/C(=C\C2CCCCC2)c2ccc(F)cc21)NCc1ccccc1 [Compound 38]
- EC50 (RKO cells; [4]): 6700 ± 100 nM

Structure (SMILES): CSc1ccc(/C=C2\C=C(CC(=O)NCc3cccc(Cl)c3)c3cc(F)ccc32)cc1 [Compound 21]
- EC50 (HCT-116 cells; [1]): > 3000 nM
- EC50 (RKO cells; [2]): > 3000 nM

Structure (SMILES): CSc1ccc(/C=C2\C=C(CC(=O)NCc3ccc(C(F)(F)F)cc3)c3cc(F)ccc32)cc1 [Compound 24]
- EC50 (HCT-116 cells; [1]): > 3000 nM
- EC50 (RKO cells; [2]): > 3000 nM

Structure (SMILES): COc1ccc2c(c1)c(CC(=O)O)c(C)n2C(=O)c1ccc(Cl)cc1 [Indomethacin, indomethacin, reference compound]
- EC50 (HCT-116 cells; [1]): 449000 ± 97600 nM
- EC50 (RKO cells; [2]): 162000 ± 11000 nM

Structure (SMILES): CSc1ccc(/C=C2\C=C(CC(=O)NCc3cccc(O)c3)c3cc(F)ccc32)cc1 [Compound 16]
- EC50 (HCT-116 cells; [1]): 1470 ± 30 nM
- EC50 (RKO cells; [2]): 830 ± 60 nM

Structure (SMILES): O=C(CC1=C/C(=C\c2ccccc2)c2ccc(F)cc21)NCc1ccccc1 [Compound 34]
- EC50 (RKO cells; [4]): 5400 ± 500 nM

Structure (SMILES): CSc1ccc(/C=C2\C=C(CC(=O)Nc3ccc(F)cc3Cl)c3cc(F)ccc32)cc1 [Compound 10]
- EC50 (HCT-116 cells; [1]): > 3000 nM
- EC50 (RKO cells; [2]): > 3000 nM

Structure (SMILES): CSc1ccc(/C=C2\C=C(CC(=O)N[C@@H](C)c3ccccc3)c3cc(F)ccc32)cc1 [Compound 7]
- EC50 (HCT-116 cells; [1]): > 3000 nM
- EC50 (RKO cells; [2]): > 3000 nM

Structure (SMILES): CSc1ccc(/C=C2\C=C(CC(=O)NCc3cccc(N)c3)c3cc(F)ccc32)cc1 [Compound 13]
- EC50 (HCT-116 cells; [1]): 2080 ± 80 nM
- EC50 (RKO cells; [2]): 990 ± 30 nM

Structure (SMILES): CSc1ccc(/C=C2\C=C(CC(=O)NCc3cccc(C)c3)c3cc(F)ccc32)cc1 [Compound 18]
- EC50 (HCT-116 cells; [1]): > 3000 nM
- EC50 (RKO cells; [2]): > 3000 nM

Structure (SMILES): O=C(O)CC1=C/C(=C\c2ccc(C(=O)O)cc2)c2ccc(F)cc21 [Compound 36]
- EC50 (RKO cells; [4]): 6400 ± 600 nM

Structure (SMILES): CSc1ccc(/C=C2\C=C(CC(=O)NCc3ccc(C(=O)c4ccccc4)cc3)c3cc(F)ccc32)cc1 [Compound 30]
- EC50 (HCT-116 cells; [1]): 180 ± 40 nM
- EC50 (RKO cells; [2]): 40 ± 20 nM

Structure (SMILES): CSc1ccc(/C=C2\C=C(CC(=O)NCc3ccc(Cl)cc3)c3cc(F)ccc32)cc1 [Compound 20]
- EC50 (HCT-116 cells; [1]): 800 ± 100 nM
- EC50 (RKO cells; [2]): 630 ± 70 nM

Structure (SMILES): COc1ccc(NC(=O)CC2=C/C(=C\c3ccc(SC)cc3)c3ccc(F)cc32)cc1 [Compound 11]
- EC50 (HCT-116 cells; [1]): > 3000 nM
- EC50 (RKO cells; [2]): > 3000 nM

Structure (SMILES): CSc1ccc(/C=C2/C(C)=C(CC(=O)O)c3cc(F)ccc32)cc1 [Sulindac sulfide, reference compound]
- EC50 (HCT-116 cells; [1]): 109000 ± 10000 nM
- EC50 (RKO cells; [2]): 98200 ± 1400 nM

Structure (SMILES): CSc1ccc(/C=C2\C=C(CC(=O)NCc3ccc(Br)cc3)c3cc(F)ccc32)cc1 [Compound 22]
- EC50 (HCT-116 cells; [1]): 1300 ± 200 nM
- EC50 (RKO cells; [2]): 670 ± 70 nM

Structure (SMILES): CSc1ccc(/C=C2\C=C(CC(=O)NCc3cccc(C(F)(F)F)c3)c3cc(F)ccc32)cc1 [Compound 25]
- EC50 (HCT-116 cells; [1]): > 3000 nM
- EC50 (RKO cells; [2]): > 3000 nM

Structure (SMILES): CSc1ccc(/C=C2\C=C(CC(=O)Nc3ccccc3)c3cc(F)ccc32)cc1 [Compound 2]
- EC50 (HCT-116 cells; [1]): > 3000 nM
- EC50 (RKO cells; [2]): > 3000 nM
